The text below walks through data of patent US20260297070A1, “CYCLIC [COMPOUND LEFT OUT] WRN INHIBITORS” (Nimbus Wadjet, Inc., priority 2023, published 2026).

A value given as a limit tells only on which side of the number the result lay.

The test addresses T1, human Werner helicase (WRN-BV08, Uniprot Q14191, amino acids 517-1235 with L1074F point mutation) (Homo sapiens, UniProt Q14191, L1074F).
T1 construct: Uniprot Q14191, amino acids 517-1235 with L1074F point mutation; TEV-cleavable 8×His (C, cleaved yes); made in house; host or cells: Sf9 insect cells (baculovirus)
As to the kind of experiment: WRN (BV08) ADP-Glo Assay. It is filed as biochemical. The following applies: 0.15 nM WRN, 5 μM ATP, 0.1 nM DNA duplex, 15 min preincubation, 60 min at 25° C., pH 7.5, 1% DMSO; read-out: ADP-Glo_hWRN_IC50. The method in brief: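 Helicase ATPase activity is measured at 25 °C over 60 min using 0.15 nM enzyme, 5 μM ATP and 0.1 nM DNA duplex, final DMSO 1%. ADP production is detected by luminescence, with IC50 derived by curve fitting.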

T1 sequence (Q14191 with tags, fused parts or gaps L1074F limits assumed): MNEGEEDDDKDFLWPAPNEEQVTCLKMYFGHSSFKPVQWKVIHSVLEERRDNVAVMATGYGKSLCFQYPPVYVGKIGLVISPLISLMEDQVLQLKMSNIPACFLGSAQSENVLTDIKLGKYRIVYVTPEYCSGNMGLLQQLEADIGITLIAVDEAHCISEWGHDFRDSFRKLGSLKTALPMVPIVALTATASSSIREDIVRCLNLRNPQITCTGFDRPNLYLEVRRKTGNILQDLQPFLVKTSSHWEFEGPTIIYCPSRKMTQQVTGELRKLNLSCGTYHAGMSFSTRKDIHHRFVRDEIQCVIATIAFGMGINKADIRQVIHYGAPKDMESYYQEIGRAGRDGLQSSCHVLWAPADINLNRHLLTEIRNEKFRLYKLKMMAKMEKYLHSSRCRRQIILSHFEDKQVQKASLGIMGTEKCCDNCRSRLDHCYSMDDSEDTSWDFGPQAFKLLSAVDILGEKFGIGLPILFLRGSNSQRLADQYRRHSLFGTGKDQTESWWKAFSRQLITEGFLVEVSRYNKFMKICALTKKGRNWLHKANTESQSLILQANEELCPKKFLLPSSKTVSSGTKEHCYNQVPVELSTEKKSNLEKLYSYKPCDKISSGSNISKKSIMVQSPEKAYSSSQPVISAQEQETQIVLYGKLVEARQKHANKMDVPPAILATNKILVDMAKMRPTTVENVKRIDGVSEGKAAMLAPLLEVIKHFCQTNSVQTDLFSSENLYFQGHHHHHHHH

With `Cc1nc2cc(CC(=O)N(Cc3ccncc3)C3C=CS(=O)(=O)C3)ccc2o1` (stereo not shown) [I-610, N-(1,1-dioxo-2,3-dihydro-1lambda6-thiophen-3-yl)-2-(2-methyl-1,3-benzoxazol-5-yl)-N-[(pyridin-4-yl)methyl]acetamide], the IC50 is greater than 50 µM.

Turning to `O=C(Cc1ccc(-n2cccc2)cc1)N(Cc1ccc2ccccc2n1)C1C=CS(=O)(=O)C1` (stereo not shown) [I-210, N-(1,1-dioxo-2,3-dihydro-1lambda6-thiophen-3-yl)-2-[4-(1H-pyrrol-1-yl)phenyl]-N-[(quinolin-2-yl)methyl]acetamide], the IC50 lay in the range of 0.5 to 5 µM. With `O=C(Cc1ccc2cc[nH]c2c1)N(Cc1ccncc1)C1C=CS(=O)(=O)C1` (stereo not shown) [I-506, N-(1,1-dioxo-2,3-dihydro-1lambda6-thiophen-3-yl)-2-(1H-indol-6-yl)-N-[(pyridin-4-yl)methyl]acetamide] the figure was greater than 50 µM. With `Cc1cccn1-c1ccc(CC(=O)N(Cc2ccnc(C3(O)CCC3)c2)C2C=CS(=O)(=O)C2)c(F)c1` (stereo not shown) [I-65, N-(1,1-dioxido-2,3-dihydrothiophen-3-yl)-2-(2-fluoro-4-(2-methyl-1H-pyrrol-1-yl)phenyl)-N-((2-(1-hydroxycyclobutyl)pyridin-4-yl)methyl)acetamide] the figure was less than 0.5 µM; with `CC(C)(O)c1cc(CN(C(=O)C(OC2CC2)c2ccc(-c3ccc(F)c(F)c3)cc2F)[C@@H]2C=CS(=O)(=O)C2)ccn1` (single isomer, unassigned) [I-681], less than 0.5 µM. Then `O=C(CCn1ccc2ccccc21)N(Cc1ccncc1)C1C=CS(=O)(=O)C1` (stereo not shown) [I-502, N-(1,1-dioxo-2,3-dihydro-1lambda6-thiophen-3-yl)-3-(1H-indol-1-yl)-N-[(pyridin-4-yl)methyl]propanamide], with greater than 50 µM; and `COc1cc(CN(C(=O)C(OC)c2ccc(-c3ccc(F)cc3)cc2)C2C=CS(=O)(=O)C2)ccn1` (stereo not shown) [I-86, N-(1,1-dioxo-2,3-dihydro-1lambda6-thiophen-3-yl)-2-{4′-fluoro-[1,1′-biphenyl]-4-yl}-2-methoxy-N-[(2-methoxypyridin-4-yl)methyl]acetamide], with 0.5 to 5 µM; and `CN(C)C(=O)CC(C(=O)N(Cc1ccncc1)C1C=CS(=O)(=O)C1)c1ccc(-c2ccc(F)cc2)cc1` (stereo not shown) [I-475, N-(1,1-dioxo-2,3-dihydro-1lambda6-thiophen-3-yl)-2-{4′-fluoro-[1,1′-biphenyl]-4-yl}-N′,N′-dimethyl-N-[(pyridin-4-yl)methyl]butanediamide], with greater than 50 µM. In the case of `Cc1cccn1-c1ccc(CC(=O)N(Cc2ccncc2)C2C=CS(=O)(=O)C2)cc1` (stereo not shown) [I-206, N-(1,1-dioxo-2,3-dihydro-1lambda6-thiophen-3-yl)-2-[4-(2-methyl-1H-pyrrol-1-yl)phenyl]-N-[(pyridin-4-yl)methyl]acetamide], the IC50 lay within 0.5 to 5 µM.

With `COc1cc(CN(C(=O)Cn2cc3cc(C(F)(F)F)ccc3n2)[C@@H]2C=CS(=O)(=O)C2)ccn1` [I-699, N-[(3R)-1,1-dioxo-2,3-dihydro-1lambda6-thiophen-3-yl]-N-[(2-methoxypyridin-4-yl)methyl]-2-[5-(trifluoromethyl)-2H-indazol-2-yl]acetamide], the IC50 fell in the range of 0.5 to 5 µM.

Turning to `COC(C(=O)N(Cc1ccncc1)C1C=CS(=O)(=O)C1)c1ccc(-c2ccc(C)cc2)cc1` (stereo not shown) [I-356, N-(1,1-dioxo-2,3-dihydro-1lambda6-thiophen-3-yl)-2-methoxy-2-{4′-methyl-[1,1′-biphenyl]-4-yl}-N-[(pyridin-4-yl)methyl]acetamide], the IC50 was in the range of 10 to 50 µM. With `O=C(Cc1ccc(-n2cccn2)cc1)N(Cc1ccncc1)C1C=CS(=O)(=O)C1` (stereo not shown) [I-419, N-(1,1-dioxo-2,3-dihydro-1lambda6-thiophen-3-yl)-2-[4-(1H-pyrazol-1-yl)phenyl]-N-[(pyridin-4-yl)methyl]acetamide] the figure was greater than 50 µM; with `CN(C)C(=O)c1ccc(CN(C(=O)Cc2ccc(-c3ccc(F)c(F)c3)cc2F)C2C=CS(=O)(=O)C2)cc1` (stereo not shown) [I-779, 4-{[N-(1,1-dioxo-2,3-dihydro-1lambda6-thiophen-3-yl)-2-{3,3′,4′-trifluoro-[1,1′-biphenyl]-4-yl}acetamido]methyl}-N,N-dimethylbenzamide], 0.5 to 5 µM; with `O=C(CCCC[C@@H]1SC[C@@H]2NC(=O)N[C@@H]21)NCCOCCOCCOCCOCCOCCOCCC(=O)N1CCN(Cc2ccc(CN(C(=O)Cc3ccc(-n4cccc4)cc3F)C3C=CS(=O)(=O)C3)cc2)CC1` (stereo partly drawn) [II-4, 5-[(3aS,4S,6aR)-2-oxo-hexahydro-1H-thieno[3,4-d]imidazol-4-yl]-N-(21-{4-[(4-{[N-(1,1-dioxo-2,3-dihydro-1lambda6-thiophen-3-yl)-2-[2-fluoro-4-(1H-pyrrol-1-yl)phenyl]acetamido]methyl}phenyl)methyl]piperazin-1-yl}-21-oxo-3,6,9,12,15,18-hexaoxahenicosan-1-yl)pentanamide], 10 to 50 µM.

For the compound `O=C([C@H]1CC[C@@H](c2ccccc2)O1)N(Cc1ccncc1)C1C=CS(=O)(=O)C1` (mixture of isomers) [I-652, rac-(2R,5S)-N-(1,1-dioxo-2,3-dihydro-1lambda6-thiophen-3-yl)-5-phenyl-N-[(pyridin-4-yl)methyl]oxolane-2-carboxamide], the IC50 is greater than 50 µM. As for `Cc1ccc(-c2ccc(CC(=O)N(Cc3ccncc3)C3C=CS(=O)(=O)C3)cc2)cc1` (stereo not shown) [I-470, N-(1,1-dioxo-2,3-dihydro-1lambda6-thiophen-3-yl)-2-{4′-methyl-[1,1′-biphenyl]-4-yl}-N-[(pyridin-4-yl)methyl]acetamide], the IC50 is greater than 50 µM. Then `O=C(c1cnn(Cc2ccccc2)c1)N(Cc1ccncc1)C1C=CS(=O)(=O)C1` (stereo not shown) [I-538, 1-benzyl-N-(1,1-dioxo-2,3-dihydro-1lambda6-thiophen-3-yl)-N-[(pyridin-4-yl)methyl]-1H-pyrazole-4-carboxamide], with greater than 50 µM; and `COc1cc(CN(C(=O)Cc2ccc(C3CC(F)C3)cc2F)[C@@H]2C=CS(=O)(=O)C2)ccn1` (stereo partly drawn) [I-591, N-[(3R)-1,1-dioxo-2,3-dihydro-1lambda6-thiophen-3-yl]-2-[2-fluoro-4-(3-fluorocyclobutyl)phenyl]-N-[(2-methoxypyridin-4-yl)methyl]acetamide], with 0.5 to 5 µM; and `COc1cc(CN(C(=O)C(O/C=C/S(C)(=O)=O)c2ccc(-c3ccc(F)c(F)c3)cc2F)[C@@H]2C=CS(=O)(=O)C2)ccn1` (stereo partly drawn) [I-793, N-[(3R)-1,1-dioxo-2,3-dihydro-1lambda6-thiophen-3-yl]-2-{[(1E)-2-methanesulfonylethenyl]oxy}-N-[(2-methoxypyridin-4-yl)methyl]-2-{3,3′,4′-trifluoro-[1,1′-biphenyl]-4-yl}acetamide], with 0.5 to 5 µM. With `O=C(N(Cc1ccncc1)C1C=CS(=O)(=O)C1)C12CC(c3cccc(C(F)(F)F)c3)(C1)C2F` (stereo not shown) [I-586, N-(1,1-dioxo-2,3-dihydro-1lambda6-thiophen-3-yl)-2-fluoro-N-[(pyridin-4-yl)methyl]-3-[3-(trifluoromethyl)phenyl]bicyclo[1.1.1]pentane-1-carboxamide] the figure was greater than 50 µM.

Regarding `O=C(Cc1ccn(-c2ccc(F)cc2)n1)N(Cc1ccncc1)C1C=CS(=O)(=O)C1` (stereo not shown) [I-394, N-(1,1-dioxo-2,3-dihydro-1lambda6-thiophen-3-yl)-2-[1-(4-fluorophenyl)-1H-pyrazol-3-yl]-N-[(pyridin-4-yl)methyl]acetamide], the IC50 was greater than 50 µM. With `O=C(Cc1ccc(-n2cccc2)cc1)N(Cc1cc(F)ccc1F)C1C=CS(=O)(=O)C1` (stereo not shown) [I-278, N-[(2,5-difluorophenyl)methyl]-N-(1,1-dioxo-2,3-dihydro-1lambda6-thiophen-3-yl)-2-[4-(1H-pyrrol-1-yl)phenyl]acetamide] the figure was 10 to 50 µM; with `COc1cc(CN(C(=O)Cc2ccc(C(F)(F)F)cc2)C2C=CS(=O)(=O)C2)ccn1` (single isomer, unassigned) [I-382], greater than 50 µM. With `CC(C(=O)N(Cc1ccnc(C(C)(C)O)c1)[C@@H]1C=CS(=O)(=O)C1)n1cc(-c2cc(F)c(F)c(F)c2)cn1` (single isomer, unassigned) [I-789] the figure was less than 0.5 µM; with `O=C(Cc1nc(C2CC2)cs1)N(Cc1ccncc1)C1C=CS(=O)(=O)C1` (stereo not shown) [I-580, 2-(4-cyclopropyl-1,3-thiazol-2-yl)-N-(1,1-dioxo-2,3-dihydro-1lambda6-thiophen-3-yl)-N-[(pyridin-4-yl)methyl]acetamide], greater than 50 µM. In the case of `CN(C)C(=O)CC(C(=O)N(Cc1ccnc(C(C)(C)O)c1)C1C=CS(=O)(=O)C1)c1ccc(S(F)(F)(F)(F)F)cc1` (stereo not shown) [I-460, N-(1,1-dioxo-2,3-dihydro-1lambda6-thiophen-3-yl)-N-{[2-(2-hydroxypropan-2-yl)pyridin-4-yl]methyl}-N′,N′-dimethyl-2-[4-(pentafluoro-lambda6-sulfanyl)phenyl]butanediamide], the IC50 was greater than 50 µM. Then `O=C(Cc1ccc(-n2cccc2)cc1)N(Cc1ccc2cc[nH]c2c1)C1C=CS(=O)(=O)C1` (stereo not shown) [I-499, N-(1,1-dioxo-2,3-dihydro-1lambda6-thiophen-3-yl)-N-[(1H-indol-6-yl)methyl]-2-[4-(1H-pyrrol-1-yl)phenyl]acetamide], with greater than 50 µM; and `O=C(Cn1cc(-c2ccccc2)nn1)N(Cc1ccncc1)C1C=CS(=O)(=O)C1` (stereo not shown) [I-403, N-(1,1-dioxo-2,3-dihydro-1lambda6-thiophen-3-yl)-2-(4-phenyl-1H-1,2,3-triazol-1-yl)-N-[(pyridin-4-yl)methyl]acetamide], with greater than 50 µM.
